Experimental findings from ChEMBL document CHEMBL4513101, “Naegleria gruberi Pathogen Box compounds screening” (2021) are described below.

Active and inactive are the calls of the source. Rule as the data show it: active = inhibition of 80% or more and inactive = less.

The first experiment has as its system Naegleria gruberi.
Test: not given
Particulars: NEG-M, at 10 µM.
For MMV688978, the inhibition was 60.5%.

The next experiment relates to Naegleria gruberi. The experiment in a line: microbe, parasite or virus in culture. Conditions: NEG-M, CONC 10 uM. Type of experiment: functional.
Description: Growth inhibiting activity of Naegleria gruberi in vitro
As for `O=C(Nc1c(O)cccc1-c1nc2c(C(=O)O)cccc2o1)c1cc(-c2ccccc2)on1`, the inhibition at 10 µM is listed as 18.4% (not active).
The same measure, in the same setting: as for `COc1cc2ncnc(NC3CCN(Cc4ccccc4)CC3)c2cc1OC`, the figure is 13.6% (not active); as for `Cc1ccc(NC(=O)c2cc(S(=O)(=O)NC(C)(C)C)ccc2C)nc1`, 34.7% (not active); as for `CCN(CC)C(=O)N1CCN(C)CC1` [DIETHYLCARBAMAZINE], 19% (not active).
Same read-out and setting: as for `O=C(N[C@H](Cc1ccccc1)C(=O)Nc1ccccc1N1CCOCC1)c1cccs1`, the figure is 29.6% (not active); as for `Clc1ccc(Cl)c(CO[C@H]2CCCC[C@@H]2n2ccnc2)c1`, 35.1% (not active); as for `Nc1ncnc2[nH]nc(Cc3cccc4ccccc34)c12`, 24% (not active).
Still for that read-out and setting: for `Cc1nn(Cc2ccccc2)c(Cl)c1C(=O)NC1CCCCCC1` the value was 36.1% (not active); for `C[C@H](C(N)=O)N1CCCC[C@@H]1c1ccc(OCc2cccc(F)c2)cc1`, 13.9% (not active).
In the case of `c1coc(CNc2nc(N3CCCCC3)nc3ccccc23)c1`, the inhibition at 10 µM is 56.5% (not active).
Consider `O=C(Nc1ccc(C(F)(F)F)c(C(F)(F)F)c1)c1cc(Cl)ccc1O`, for which the inhibition at 10 µM is 98.5% (active).
On the same count and under the same terms, for `CCCn1nnc(NC(=O)COc2ccc(C3CCCCC3)cc2)n1` the value was 33% (not active); for `Nc1ccc2ncnc(Nc3ccc(OCc4cccc(F)c4)c(Cl)c3)c2c1`, 10.6% (not active).
For `O=C(NCc1cc(Cl)cc(Cl)c1)c1c(C(F)(F)F)nc2ccccn12`, the inhibition at 10 µM was 28.4% (not active).
The same measure, in the same setting: as for `CO/C=C(/C(=O)OC)c1ccccc1Oc1cc(Oc2ccccc2C#N)ncn1` [AZOXYSTROBIN], the figure is 33.7% (not active); as for `CS(=O)(=O)N1CCC(CCn2nc(Cc3cccc4ccccc34)c3c(N)ncnc32)CC1`, 26.2% (not active).
With `O=C(CCC1CCCCC1)Nc1cccc(-c2nnc(-c3ccco3)o2)c1`, the inhibition at 10 µM was 30% (not active).
Take `COc1ccc(C2=NN(C3CCCCCC3)C(=O)C2(C)C)cc1OCCCCOc1ccc(-c2nn[nH]n2)cc1`: the inhibition at 10 µM is listed as 36.8% (not active).
Turning to `OC[C@H]1O[C@@H](n2c3ccc(Cl)cc3c3c(-c4cc5ccccc5o4)ncnc32)C(O)[C@H]1O` (some centres undefined), the inhibition at 10 µM is 17.3% (not active).
Still for that read-out and setting: as for `CO[C@@H](C(=O)N1Cc2[nH]nc(NC(=O)c3ccc(N4CCN(C)CC4)cc3)c2C1)c1ccccc1` [DANUSERTIB], the figure is 41.3% (not active).
Still for that read-out and setting: as for `COc1cc(Br)cc2cc(C(=O)Nc3cccc(C(F)(F)F)c3)c(=O)oc12`, the figure is 21% (not active).
The same measure, in the same setting: as for `CCOc1ccc(-c2nc(CNCCc3ccc(F)cc3)cs2)cc1`, the figure is 42.4% (not active).
As for `COC(=O)c1ccc(F)cc1NS(=O)(=O)c1cccc(-c2cnn(Cc3ccccc3)c2)c1`, the inhibition at 10 µM is listed as 26.2% (not active).
Consider `COc1cccn2c(C(=O)N3CCCCC3)c(C(F)(F)F)nc12`, for which the inhibition at 10 µM is reported as 17% (not active).
The same measure, in the same setting: as for `CC(C(=O)Nc1ccc2oc(-c3ccncc3)nc2c1)c1ccccc1` (centres undefined), the figure is 48.6% (not active); as for `CCc1ccccc1-n1c(C)cn2c3c(=O)n(C(C(=O)OC)C(C)C)c(=O)n(C)c3nc12` (centres undefined), 4.4% (not active).
Same read-out and setting: for `O=C(Nc1ccc(F)c(-c2nc3cc(-c4ccccc4)cnc3[nH]2)c1)N1CCCC1` the value was 49.5% (not active).
On the same count and under the same terms, as for `Cc1cc2nc(NC(=O)C(C)(C)C)nc(Cl)c2n1Cc1ccc(Cl)cc1`, the figure is 43% (not active); as for `CC(C)(C)c1cc(C(=O)N2CCN(c3nccnc3C#N)CC2)n(Cc2ccccc2)n1`, 31.6% (not active).
For `CCc1cc(=O)n(C)c(SC(C)C(=O)Nc2ccc(F)cc2)n1` (centres undefined), the inhibition at 10 µM is 10.4% (not active).
With `Clc1ccc(CN2CCN(C3=NCCN3)CC2)cc1Cl`, the inhibition at 10 µM is recorded as 23.3% (not active).
On the same count and under the same terms, as for `CNCCC(Oc1ccc(C(F)(F)F)cc1)c1ccccc1` (centres undefined) [FLUOXETINE], the figure is 7.5% (not active); as for `FC(F)(F)c1cnc(Sc2nnc(-c3ccncc3)o2)c(Cl)c1`, 42.8% (not active).
Turning to `COc1cc(C2=NCCN2)ccc1-n1cc(-c2cccc(C3=NCCN3)c2)nn1`, the inhibition at 10 µM is listed as 16.2% (not active).
Still for that read-out and setting: for `CS(=O)(=O)c1cccc(-c2cnc3[nH]cc(-c4ccc(CCC(=O)O)cc4)c3c2)c1` the value was 28.7% (not active); for `CC1COC2(CCN(c3nc(=O)c4cc(C(F)(F)F)cc([N+](=O)[O-])c4s3)CC2)O1` (centres undefined), 38.4% (not active).
As for `CNc1nnc(Sc2cnn(-c3ccccc3)c(=O)c2Cl)s1`, the inhibition at 10 µM is given as 50% (not active).
The same measure, in the same setting: for `CCCCS(=O)(=O)Nc1ccc2cnn(C)c2c1` the value was 17.4% (not active).
Still for that read-out and setting: as for `O=[N+]([O-])c1cn2c(n1)OC[C@@H](OCc1ccc(OC(F)(F)F)cc1)C2` [PRETOMANID], the figure is 16.1% (not active); as for `CCS(=O)(=O)N(Cc1ccco1)Cc1cc2ccc(C)cc2nc1O`, 0% (not active).
Same read-out and setting: as for `CC(C)=CCC/C(C)=C\CNCCNC1C2CC3CC(C2)CC1C3` (centres undefined), the figure is 20.2% (not active).
As for `CCCn1c(NC(=O)c2ccc3ccccc3n2)nc2ccccc21`, the inhibition at 10 µM is 22.6% (not active).
Same read-out and setting: as for `COc1ccc2nc(C)cc(OCC(=O)NCc3ccccc3)c2c1`, the figure is 41.1% (not active).

In general, inhibition refers to the percentage by which the read-out fell short of the control.
